System: MIA PaCa-2 cells
Assay: MIA PaCa2 cell-based assay (1,536-well high-content imaging ALDEFLUOR assay)
Parameters: species or system human
Conditions: Homo sapiens, 0.5 h, ALDEFLUOR BAAA substrate 500 nM, 30 minutes
Method: Example 359. MIA PaCa2 Cell-Based Assay (In Vitro Assay)
1,536-Well High-Content Imaging ALDEFLUOR Assay
The ALDEFLUOR™ kit was purchased from […] Technologies (Vancouver, Canada; #01700). MIA PaCa-2 cells (5 μL; 1,000 cells/well) were dispensed into black, optical quality (cyclic olefin copolymer) clear bottom, medium binding TC treated 1,536-well plates (Aurora Microplates, Whitefish Mont.) using a Multidrop Combi dispenser (ThermoFisher) and incubated overnight (37° C., 5% CO2, 85% RH). Media (RPMI 1640 (Life Technologies, Carlsbad, Calif.), supplemented with 2 mM L-Glutamine (Life Technologies), 10% HyClone™ fetal bovine serum (FBS, GE Healthcare, Piscataway, N.J.) and 100 U/mL penicillin and 100 μg/mL streptomycin (Life Technologies)) was subsequently removed by centrifuging plates upside down using a plate adaptor to collect media. A solution of BAAA substrate ([…] Technologies) and Hoechst 33342 (ThermoFisher, final concentrations of 500 nM and 0.5 nM, respectively) in ALDEFLUOR™ buffer ([…] Technologies #01700) was dispensed onto cells using a Multidrop Combi followed by immediate transfer (23 nL) of compound or control solutions using a Wako Pin-tool (final percentage of DMSO in the cell plates was 0.5%). Unless otherwise noted, all compounds were assayed as 16-point dilutions spanning a final concentration range of 1.4 nM to 47.8 μM. The neutral and positive assay controls were DMSO and DEAB (4.6 μM), respectively. Cells were incubated for 30 minutes or the indicated amount of time at 37° C., 5% CO2, 85% RH to allow the conversion of BAAA into BAA. Supernatant was subsequently removed by centrifugation as described above, then ALDEFLUOR™ buffer (3 μl) was dispensed by Multidrop Combi before imaging on an IN Cell 2200 (GE Healthcare).
The above assay was modified for an online robotic screening system. After cell plating and overnight incubation, 4 μL of media were removed using a 64-tip metal aspirator head on a Wako aspirator station, leaving 1 μL remaining in the well, followed by a 4 μL dispense of BAAA and Hoechst 33342 in ALDEFLUOR™ buffer, for a final concentration of 500 nM and 0.5 nM, respectively Immediately following the dispense, 23 nL of compound or control solutions were transferred using a Wako Pin-tool. Cells were incubated for 30 minutes at 37° C., 5% CO2, 85% RH, followed by a 4 μL media removal using the Wako aspirator, and a subsequent 3 μL addition of ALDEFLUOR™ buffer. Plates were then immediately read on the IN Cell 2200 as described below.
Image Acquisition and Analysis
For images captured on the IN Cell 2200 widefield automated microscope, a 10×0.45 NA Plan Apo objective lens was used to capture the entire well of the 1,536-well plate using standard DAPI (390/18×, 432/48 m) and FITC (475/28×, 525/48 m) filter sets at 50 msec and 100 msec exposures, respectively. Images were subsequently analyzed using IN Cell Investigator v1.6.2 analysis software's canned Multi-Target Analysis algorithm (GE Healthcare). Hoechst stained nuclei were identified using top hat segmentation with a minimum area of 75 μm^2 and sensitivity of 93. BAA-retaining cells captured via FITC channel, were identified using multiscale top hat segmentation with a minimum area of 100 μm^2 and a sensitivity setting of 16. […] Data were plotted using GraphPad Prism software (GraphPad, San Diego, Calif.).

IC50 | Structure (SMILES)
< 500 nM | CS(=O)(=O)N1CCN(C(=O)c2cnc3c(F)cc(F)cc3c2-c2ccc(C3(C#N)CC3)cc2)CC1 [Cpd. 324, 1-(4-(6,8-difluoro-3-(4-(methylsulfonyl)piperazine-1-carbonyl)quinolin-4-yl)phenyl)cyclopropane-1-carbonitrile]
1000 to 10000 nM | CC(C)C(=O)N1CCN(C(=O)c2cnc3ccc(F)cc3c2N2CCC(C)(C#N)CC2)CC1 [Example 92, 1-(6-fluoro-3-(4-isobutyrylpiperazine-1-carbonyl)quinolin-4-yl)-4-methylpiperidine-4-carbonitrile]
500 to 1000 nM | N#CC1(CC2CC2)CCN(c2c(C(=O)N3CCN(C(=O)C4CC4)CC3)cnc3ccc(F)cc23)CC1 [Example 242, 1-(3-(4-(cyclopropanecarbonyl)piperazine-1-carbonyl)-6-fluoroquinolin-4-yl)-4-(cyclopropylmethyl)piperidine-4-carbonitrile]
1000 to 10000 nM | CCS(=O)(=O)N1CCN(C(=O)c2cnc3ccc(F)cc3c2N2CCC(C)(C#N)CC2)CC1 [Example 156, 1-(3-(4-(ethylsulfonyl)piperazine-1-carbonyl)-6-fluoroquinolin-4-yl)-4-methylpiperidine-4-carbonitrile]
1000 to 10000 nM | CC1(C#N)CCN(c2c(C(=O)N3CCN(S(C)(=O)=O)CC3)cnc3sccc23)CC1 [Example 217, 4-methyl-1-(5-(4-(methylsulfonyl)piperazine-1-carbonyl)thieno[2,3-b]pyridin-4-yl)piperidine-4-carbonitrile]
< 500 nM | CS(=O)(=O)N1CCN(C(=O)c2cnc3ccc(Cl)cc3c2N2CCC(C#N)(c3ccccc3)CC2)CC1 [Cpd. 316, 1-(6-chloro-3-(4-(methylsulfonyl)piperazine-1-carbonyl)quinolin-4-yl)-4-phenylpiperidine-4-carbonitrile]
< 500 nM | CS(=O)(=O)N1CCN(C(=O)c2cnc3ccc(F)cc3c2N2CCC(C=O)(c3ccccc3)CC2)CC1 [Example 257, 1-(6-fluoro-3-(4-(methylsulfonyl)piperazine-1-carbonyl)quinolin-4-yl)-4-phenylpiperidine-4-carbaldehyde]
1000 to 10000 nM | C[C@H]1CN(C(=O)c2cnc3ccc(F)cc3c2N2CCC(C)(C#N)CC2)CCN1S(C)(=O)=O [Example 226, (S)-1-(6-fluoro-3-(3-methyl-4-(methylsulfonyl)piperazine-1-carbonyl)quinolin-4-yl)-4-methylpiperidine-4-carbonitrile]
1000 to 10000 nM | COc1cc2ncc(C(=O)N3CCN(C(=O)C4CC4)CC3)c(N3CCC4(CC3)OCCO4)c2cc1OC [Example 48, (4-(cyclopropanecarbonyl)piperazin-1-yl)(6,7-dimethoxy-4-(1,4-dioxa-8-azaspiro[4.5]decan-8-yl)quinolin-3-yl)methanone]
< 500 nM | CS(=O)(=O)N1CCN(C(=O)c2cnc3ccc(F)cc3c2N2CCC(C#N)(c3ccccc3)CC2)CC1 [Example 209, 1-(6-fluoro-3-(4-(methylsulfonyl)piperazine-1-carbonyl)quinolin-4-yl)-4-phenylpiperidine-4-carbonitrile]
500 to 1000 nM | CC1(C#N)CCN(c2c(C(=O)N3CCN(C(=O)C4CC4)CC3)cnc3ccsc23)CC1 [Example 233, 1-(6-(4-(cyclopropanecarbonyl)piperazine-1-carbonyl)thieno[3,2-b]pyridin-7-yl)-4-methylpiperidine-4-carbonitrile]
> 10000 nM | O=C(c1cnc2ccc(F)cc2c1N1CC2CCC(C2)C1)N1CCN(C(=O)C2CC2)CC1 [Example 82, (4-(3-azabicyclo[3.2.1]octan-3-yl)-6-fluoroquinolin-3-yl)(4-(cyclopropanecarbonyl)piperazin-1-yl)methanone]
< 500 nM | CN(C)S(=O)(=O)N1CCN(C(=O)c2cnc3ccc(F)cc3c2-c2ccc(C3(C#N)CC3)cc2)CC1 [Example 260, 4-(4-(4-(1-cyanocyclopropyl)phenyl)-6-fluoroquinoline-3-carbonyl)-N,N-dimethylpiperazine-1-sulfonamide]
> 10000 nM | O=C(c1cnc2ccc(F)cc2c1N1CCC2(CC1)CC2)N1CCN(C(=O)C2CC2)CC1 [Example 59, (4-(cyclopropanecarbonyl)piperazin-1-yl)(6-fluoro-4-(6-azaspiro[2.5]octan-6-yl)quinolin-3-yl)methanone]
< 500 nM | COc1ccc2c(N3CCC(C#N)(c4ccccc4)CC3)c(C(=O)N3CCN(S(C)(=O)=O)CC3)cnc2c1 [Cpd. 318, 1-(7-methoxy-3-(4-(methylsulfonyl)piperazine-1-carbonyl)quinolin-4-yl)-4-phenylpiperidine-4-carbonitrile]
< 500 nM | CS(=O)(=O)N1CCN(C(=O)c2cnc3ccc(F)cc3c2-c2ccc(C3(C#N)CC3)cc2)CC1 [Example 210, 1-(4-(6-fluoro-3-(4-(methylsulfonyl)piperazine-1-carbonyl)quinolin-4-yl)phenyl)cyclopropanecarbonitrile]
< 500 nM | CCC1(C#N)CCN(c2c(C(=O)N3CCN(S(C)(=O)=O)CC3)cnc3ccc(F)cc23)CC1 [Example 197, 4-ethyl-1-(6-fluoro-3-(4-(methylsulfonyl)piperazine-1-carbonyl)quinolin-4-yl)piperidine-4-carbonitrile]
1000 to 10000 nM | C[C@@H]1CN(C(=O)c2cnc3ccc(F)cc3c2N2CCC(C)(C#N)CC2)CCN1S(C)(=O)=O [Example 223, (R)-1-(6-fluoro-3-(3-methyl-4-(methylsulfonyl)piperazine-1-carbonyl)quinolin-4-yl)-4-methylpiperidine-4-carbonitrile]
< 500 nM | COc1ccc2ncc(C(=O)N3CCN(S(C)(=O)=O)CC3)c(-c3ccc(C4(C#N)CC4)cc3)c2c1 [Cpd. 321, 1-(4-(6-methoxy-3-(4-(methylsulfonyl)piperazine-1-carbonyl)quinolin-4-yl)phenyl)cyclopropane-1-carbonitrile]
< 500 nM | N#CC1(c2ccc(-c3c(C(=O)N4CCN(C(=O)C5CC5)CC4)cnc4ccc(Cl)cc34)cc2)CC1 [Example 294, 1-(4-(6-chloro-3-(4-(cyclopropanecarbonyl)piperazine-1-carbonyl)quinolin-4-yl)phenyl)cyclopropanecarbonitrile]
< 500 nM | N#CC1(c2ccccc2)CCN(c2c(C(=O)N3CCN(C(=O)C4CC4)CC3)cnc3ccc(F)cc23)CC1 [Example 208, 1-(3-(4-(cyclopropanecarbonyl)piperazine-1-carbonyl)-6-fluoroquinolin-4-yl)-4-phenylpiperidine-4-carbonitrile]
1000 to 10000 nM | Cn1ncc2c(N3CCC(C)(C#N)CC3)c(C(=O)N3CCN(S(C)(=O)=O)CC3)cnc21 [Example 206, 4-methyl-1-(1-methyl-5-(4-(methylsulfonyl)piperazine-1-carbonyl)-1H-pyrazolo[3,4-b]pyridin-4-yl)piperidine-4-carbonitrile]
1000 to 10000 nM | COc1ccc2c(N3CCC4(CC3)OCCO4)c(C(=O)N3CCN(C(=O)C4CC4)CC3)cnc2c1 [Example 47, (4-(cyclopropanecarbonyl)piperazin-1-yl)(7-methoxy-4-(1,4-dioxa-8-azaspiro[4.5]decan-8-yl)quinolin-3-yl)methanone]
< 500 nM | CC(C)(C#N)c1ccc(-c2c(C(=O)N3CCN(S(C)(=O)=O)CC3)cnc3ccc(F)cc23)cc1 [Example 211, 2-(4-(6-fluoro-3-(4-(methylsulfonyl)piperazine-1-carbonyl)quinolin-4-yl)phenyl)-2-methylpropanenitrile]
< 500 nM | CC(C)(C)c1ccc(-c2c(C(=O)N3CCN(C(=O)C4CC4)CC3)cnc3ccc(F)cc23)cc1 [Example 84, (4-(4-(tert-butyl)phenyl)-6-fluoroquinolin-3-yl)(4-(cyclopropanecarbonyl)piperazin-1-yl)methanone]
1000 to 10000 nM | CS(=O)(=O)N1CCN(c2c(C(=O)N3CCN(C(=O)C4CC4)CC3)cnc3ccc(F)cc23)CC1 [Cpd. 303, (4-(cyclopropanecarbonyl)piperazin-1-yl)(6-fluoro-4-(4-(methylsulfonyl)piperazin-1-yl)quinolin-3-yl)methanone]

From patent US11795177B2, “Substituted quinoline analogs as aldehyde dehydrogenase 1A1 (ALDH1A1) inhibitors” (THE UNITED STATES OF AMERICA, AS REPRESENTED BY THE …, priority 2017, dated 2023)
